Entries after “also recorded” stand apart in the source; their conditions may differ.
What was measured:
[1] = Estimated amantadine concentration in squirrel monkeys; type: in vivo, squirrel monkey; settings: amantadine raised from 1 mg/kg to 45 mg/kg
Method: Briefly, squirrel monkeys (N=4) were lesioned with MPTP according to the protocol of Di Monte et al. (Mov. Disord. 15: 459-66 (2000)). […] Levodopa treatment at approximately 15 mg/kg (with 1.5 mg/kg carbidopa) mg/kg b.i.d. commenced a baseline UPDRS and dyskinesia measurement was established. […] We hypothesize that this translates into a potential 40% reduction in levodopa required to maintain UPDRS.

[2] = In vitro release profile, USP type 2 (paddle) dissolution; type: physicochemical; settings: USP II Paddle, 0.1N HCl
Method: Compositions containing an aminoadamantane and levodopa/carbidopa are analyzed for release of the aminoadamantane and levodopa/carbidopa, according to the USP type 2 apparatus at a speed of 50 rpm. The dissolution media used include water, 0.1N HCl, or 0.1N HCl adjusted to pH 6.8 at 2 hours with phosphate buffer. The dissolution medium is equilibrated to 37±0.5° C.
The USP reference assay method for amantadine is used to measure the fraction of memantine released from the compositions prepared herein. Briefly, 0.6 mL sample (from the dissolution apparatus at a given time point) is placed into a 15 mL culture tube. 1.6 mL 0.1% Bromocresol Purple (in acetic acid) is added and vortexed for five seconds. The mixture is allowed to stand for approximately five minutes. 3 mL Chloroform is added and vortexed for five seconds. The solution is next centrifuged (speed […]) for five minutes. The top layer is removed with a disposable pipette. A sample is drawn into 1 cm flow cell and the absorbance is measured at 408 nm at 37° C. and compared against a standard curve prepared with known quantities of the same aminoadamantane. The quantity of determined is plotted against the dissolution time for the sample.
The USP reference assay method for levodopa is used to measure the fraction of levodopa released from the compositions prepared herein. Briefly, 0.5 ml samples from the dissolution apparatus removed at various times are assayed by liquid chromatography. The chromatograph is equipped with a 280 nm detector and a 3.9 mm×30 cm column containing packing Ll. The mobile phase is 0.09 N sodium phosphate, 1 mM sodium 1-decanesulfonate, pH 2.8. With the flow rate adjusted to about 2 mL per minute, the levodopa elutes in about 4 minutes and carbidopa elutes in about 11 minutes. From the saved dissolution samples, a 0.02 ml aliquot is injected into the chromatograph and the absorbance is measure and compared to standard to determine concentration & quantity. The quantity dissolved is then plotted against the dissolution time for the sample.
The cumulative fraction is the amount of drug substance released from the formulation matrix to the serum or gut environment (e.g., U.S. Pat. No. 4,839,177 or 5,326,570) or as measured with a USP II Paddle system using 0.1N HCl as the dissolution medium.

[3] = humans; cited from earlier work

Compound | estimated concentration [1] [μm] | cum. fraction released ([2]; Time 0, amantadine and levodopa/carbidopa combination) | cum. fraction released ([2]; Time 0.5) | cum. fraction released ([2]; Time 1.0) | cum. fraction released ([2]; Time 2.0) | cum. fraction released ([2]; Time 4.0) | cum. fraction released ([2]; Time 8.0) | cum. fraction released ([2]; Time 12.0) | Dose Dependent Toxicity [3]
NC12CC3CC(CC(C3)C1)C2 [Amantadine, 1-amino-adamantane] | ~3 | 0.00 | 0.10 | 0.20 | 0.35 | 0.60 | 0.90 | 0.98 | 
CC12CC3CC(C)(C1)CC(N)(C3)C2 [Memantine, 1-amino-3,5-dimethyladamantane] |  |  |  |  |  |  |  |  | Dose escalation; also recorded: hallucination
CC(N)C12CC3CC(CC(C3)C1)C2 (stereo not shown) [Rimantadine, 1-(1-aminoethyl)adamantane] |  |  |  |  |  |  |  |  | Insomnia
